Laboratory results published in patent publication US9974869B2, “Chelated PSMA inhibitors” (Cancer Targeted Technology LLC, priority 2011, dated 2018).

Columns and labels:
[1] = target: PSMA (Homo sapiens, UniProt Q04609); experiment: PSMA inhibition (IC50, mode of inhibition); assay type: biochemical
[2] = Acid and base stability noted in preliminary labeling and deprotection studies; assay type: physicochemical; details: serine-based scaffold; beta-elimination under base, P—N bond labile to acid
Source text: The instability of CTT54 and its protected precursors under basic conditions is due to beta-elimination on serine to yield a dehydroalanine derivative. The acid instability was centered on the P—N bond of CTT54, which precluded the use of acid modifiers in HPLC mobile phases. […] The homoserine analog was known initially as hCTT54 and later, more formally, as CTT1000. The 2(3-hydroxypropyl)glycine is known as TG97 and CTT2000. The base stability was expected as the beta-elimination problem associated with phosphorylated serine residue would be blocked. However, the acid stability was unexpected.

[3] = test system: tumor; experiment: Uptake over time in the fraction associated with the tumor; details: in vivo
Source text: Following administration of the chelated PSMA inhibitors herein, the imaging time may be altered to alter and/or optimize imaging characteristics.

Chain of PSMA (Q04609 whole entry): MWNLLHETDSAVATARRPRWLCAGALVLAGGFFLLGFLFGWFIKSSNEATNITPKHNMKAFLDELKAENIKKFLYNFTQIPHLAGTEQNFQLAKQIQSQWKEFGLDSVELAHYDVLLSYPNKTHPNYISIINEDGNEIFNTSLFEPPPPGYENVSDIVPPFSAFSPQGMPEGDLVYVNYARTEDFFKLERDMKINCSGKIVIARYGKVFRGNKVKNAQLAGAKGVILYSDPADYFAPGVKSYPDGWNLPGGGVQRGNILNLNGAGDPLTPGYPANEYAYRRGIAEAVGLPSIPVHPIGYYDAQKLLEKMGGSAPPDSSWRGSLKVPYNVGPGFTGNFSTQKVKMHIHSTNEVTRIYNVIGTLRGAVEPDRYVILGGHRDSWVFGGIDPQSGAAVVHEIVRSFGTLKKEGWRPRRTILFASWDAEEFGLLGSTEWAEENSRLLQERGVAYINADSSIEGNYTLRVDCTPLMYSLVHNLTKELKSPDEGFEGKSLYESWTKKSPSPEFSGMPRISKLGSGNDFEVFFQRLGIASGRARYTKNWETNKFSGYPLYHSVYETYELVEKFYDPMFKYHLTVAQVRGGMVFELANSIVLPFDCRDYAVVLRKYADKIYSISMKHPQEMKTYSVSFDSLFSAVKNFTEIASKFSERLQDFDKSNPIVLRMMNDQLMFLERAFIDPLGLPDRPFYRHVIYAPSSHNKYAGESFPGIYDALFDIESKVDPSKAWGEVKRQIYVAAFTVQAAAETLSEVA

Row | Structure (SMILES) | IC50 [1] [nM] | acid and base stability [2] | uptake in the fraction associated with the tumor over time [3]
1 | N[C@@H](CCC(=O)N[C@@H](CCOP(=O)(O)N[C@@H](CCC(=O)O)C(=O)O)C(=O)O)C(=O)O [CTT1000] | 15 |  | 
2 | N[C@@H](CCC(=O)N[C@@H](COP(=O)(O)N[C@@H](CCC(=O)O)C(=O)O)C(=O)O)C(=O)O [CTT-54, L-[…]- glutamyl-O-[{[(1S)-1,3-dicarboxy-propyl]amino} (hydroxy)phosphoryl]-L-serine] |  | acid and base stability issues were noted | continues to increase over time
